Measurements published in patent US9695155B2, “Herbicidal substituted pyrimidinyloxy benzene compounds” (E. I. DU PONT DE NEMOURS AND COMPANY, priority 2013, dated 2017).

What was measured:
rice = assay: Test B flooded paddy test; type: in vivo, Oryza sativa; conditions: Flood, 250 g ai/ha; 0 to 100 scale where 0 is no effect and 100 is complete control
Summary of the method: (§1)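 Visual ratings on a 0 to 100 scale, where 100 means complete control, compared treated plants with controls after 13 to 15 days in a greenhouse. Treatment went into paddy water 3 cm deep over the soil, applied to plants at the 2-leaf stage.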

Italian ryegrass [1] = assay: Test A preemergence; type: in vivo, Lolium multiflorum; conditions: for Plant response rating, Ryegrass, Italian: 0 to 100 scale where 0 is no effect and 100 is complete control
Summary of the method: (§2)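 Scoring: eye-based comparison with untreated controls, 0 for no effect through 100 for complete control, at about day 10. Treatments: directed soil spray preemergence; foliar spray postemergence on 2–10 cm plants at the one- to two-leaf stage. Medium: loam soil with sand.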

ragweed [2] = assay: Test A postemergence; type: in vivo, Ambrosia elatior
Summary of the method: as §2

barnyardgrass [3] = assay: Test A postemergence; type: in vivo, Echinochloa crus-galli
Summary of the method: as §2

blackgrass = assay: Test A postemergence; type: in vivo, Alopecurus myosuroides
Summary of the method: as §2

giant foxtail [4] = assay: Test A preemergence; type: in vivo, Setaria faberii; conditions: for Plant response rating, Foxtail, Giant: 0 to 100 scale where 0 is no effect and 100 is complete control
Summary of the method: as §2

Italian ryegrass [5] = assay: Test A postemergence; type: in vivo, Lolium multiflorum
Summary of the method: as §2

galium = assay: Test A postemergence; type: in vivo, Galium aparine
Summary of the method: as §2

kochia [6] = assay: Test A postemergence; type: in vivo, Kochia scoparia
Summary of the method: as §2

ragweed [7] = assay: Test A preemergence; type: in vivo, Ambrosia elatior; conditions: for Plant response rating, Ragweed: 0 to 100 scale where 0 is no effect and 100 is complete control
Summary of the method: as §2

corn = assay: Test A postemergence; type: in vivo, Zea mays
Summary of the method: as §2

barnyardgrass [8] = assay: Test A preemergence; type: in vivo, Echinochloa crus-galli; conditions: for Plant response rating, Barnyardgrass: 0 to 100 scale where 0 is no effect and 100 is complete control
Summary of the method: as §2

pigweed [9] = assay: Test A postemergence; type: in vivo, Amaranthus retroflexus
Summary of the method: as §2

barnyardgrass [10] = assay: Test B flooded paddy test; type: in vivo, Echinochloa crus-galli; conditions: Flood, 250 g ai/ha; 0 to 100 scale where 0 is no effect and 100 is complete control
Summary of the method: as §1

sedge, umbrella = assay: Test B flooded paddy test; type: in vivo, Cyperus difformis; conditions: Flood, 250 g ai/ha; 0 to 100 scale where 0 is no effect and 100 is complete control
Summary of the method: as §1

kochia [11] = assay: Test A preemergence; type: in vivo, Kochia scoparia; conditions: for Plant response rating, Kochia: 0 to 100 scale where 0 is no effect and 100 is complete control
Summary of the method: as §2

pigweed [12] = assay: Test A preemergence; type: in vivo, Amaranthus retroflexus; conditions: for Plant response rating, Pigweed: 0 to 100 scale where 0 is no effect and 100 is complete control
Summary of the method: as §2

giant foxtail [13] = assay: Test A postemergence; type: in vivo, Setaria faberii
Summary of the method: as §2

Heteranthera limosa = assay: Test B flooded paddy test; type: in vivo; conditions: Flood, 250 g ai/ha; 0 to 100 scale where 0 is no effect and 100 is complete control
Summary of the method: as §1

wheat = assay: Test A postemergence; type: in vivo, Triticum aestivum
Summary of the method: as §2

[14] = 500 g ai/ha, 0 to 100 scale, 0 no effect, 100 complete control, approx. 10 days
[15] = 125 g ai/ha, 0 to 100 scale where 0 is no effect and 100 is complete control
[16] = 500 g ai/ha, 0 to 100 scale where 0 is no effect and 100 is complete control
[17] = 31 g ai/ha, 0 to 100 scale, 0 no effect, 100 complete control
[18] = 31 g ai/ha, visual, approximately 10 days
[19] = 125 g ai/ha, 0 to 100 scale, 0 no effect, 100 complete control

N#Cc1cnn(-c2c(C#N)cccc2Oc2ncc(I)cn2)c1 [Compound 91]
Plant response rating, Rice (rice): 0
Plant response rating, Ryegrass, Italian (Italian ryegrass [1]; 125 g ai/ha): 0
Ryegrass, Italian plant response rating (Italian ryegrass [1]; [14]): 30
Plant response rating, Ragweed (ragweed [2]; [15]): 10
Plant response rating, Ragweed (ragweed [2]; [16]): 30
Plant response rating, Barnyardgrass (barnyardgrass [3]; [15]): 0
Plant response rating, Barnyardgrass (barnyardgrass [3]; [16]): 10
Plant response rating, Blackgrass (blackgrass; [15]): 0
Plant response rating, Blackgrass (blackgrass; [16]): 30
Plant response rating, Foxtail, Giant (giant foxtail [4]; 125 g ai/ha): 10
Foxtail, Giant plant response rating (giant foxtail [4]; [14]): 30
Plant response rating, Ryegrass, Italian (Italian ryegrass [5]; [15]): 0
Plant response rating, Ryegrass, Italian (Italian ryegrass [5]; [16]): 0
Plant response rating, Galium (galium; [15]): 40
Plant response rating, Galium (galium; [16]): 70
Plant response rating, Kochia (kochia [6]; [15]): 10
Plant response rating, Kochia (kochia [6]; [16]): 30
Plant response rating, Ragweed (ragweed [7]; 125 g ai/ha): 0
Ragweed plant response rating (ragweed [7]; [14]): 0
Plant response rating, Corn (corn; [15]): 0
Plant response rating, Corn (corn; [16]): 0
Plant response rating, Barnyardgrass (barnyardgrass [8]; 125 g ai/ha): 0
Barnyardgrass plant response rating (barnyardgrass [8]; [14]): 0
Plant response rating, Pigweed (pigweed [9]; [15]): 10
Plant response rating, Pigweed (pigweed [9]; [16]): 50
Plant response rating, Barnyardgrass (barnyardgrass [10]): 0
Plant response rating, Sedge, Umbrella (sedge, umbrella): 0
Plant response rating, Kochia (kochia [11]; 125 g ai/ha): 30
Kochia plant response rating (kochia [11]; [14]): 90
Plant response rating, Pigweed (pigweed [12]; 125 g ai/ha): 70
Pigweed plant response rating (pigweed [12]; [14]): 90
Plant response rating, Foxtail, Giant (giant foxtail [13]; [15]): 10
Plant response rating, Foxtail, Giant (giant foxtail [13]; [16]): 10
Plant response rating, Ducksalad (Heteranthera limosa): 0
Plant response rating, Wheat (wheat; [15]): 0
Plant response rating, Wheat (wheat; [16]): 10

Fc1cnc(Oc2cccc(Cl)c2-n2cc(OCC(F)(F)F)cn2)nc1 [Compound 109]
Plant response rating, Rice (rice): 0
Ryegrass, Italian plant response rating (0 to 100 scale) (Italian ryegrass [1]; 31 g ai/ha): 0
Plant response rating, Ryegrass, Italian (Italian ryegrass [1]; 125 g ai/ha): 0
Plant response rating, Ragweed (ragweed [2]; [17]): 10
Plant response rating, Barnyardgrass (barnyardgrass [3]; [17]): 10
Plant response rating, Barnyardgrass (barnyardgrass [3]; [15]): 60
Plant response rating, Blackgrass (blackgrass; [17]): 20
Plant response rating, Blackgrass (blackgrass; [15]): 70
Foxtail, Giant plant response rating (0 to 100 scale) (giant foxtail [4]; 31 g ai/ha): 70
Plant response rating, Foxtail, Giant (giant foxtail [4]; 125 g ai/ha): 90
Plant response rating, Ryegrass, Italian (Italian ryegrass [5]; [17]): 0
Plant response rating, Galium (galium; [17]): 50
Plant response rating, Galium (galium; [15]): 90
Plant response rating, Kochia (kochia [6]; [17]): 40
Plant response rating, Kochia (kochia [6]; [15]): 60
Ragweed plant response rating (0 to 100 scale) (ragweed [7]; 31 g ai/ha): 0
Plant response rating, Ragweed (ragweed [7]; 125 g ai/ha): 10
Plant response rating, Corn (corn; [17]): 10
Plant response rating, Corn (corn; [15]): 40
Barnyardgrass plant response rating (0 to 100 scale) (barnyardgrass [8]; 31 g ai/ha): 20
Plant response rating, Barnyardgrass (barnyardgrass [8]; 125 g ai/ha): 60
Plant response rating, Pigweed (pigweed [9]; [17]): 70
Plant response rating, Barnyardgrass (barnyardgrass [10]): 0
Plant response rating, Sedge, Umbrella (sedge, umbrella): 85
Kochia plant response rating (0 to 100 scale) (kochia [11]; 31 g ai/ha): 20
Plant response rating, Kochia (kochia [11]; 125 g ai/ha): 60
Pigweed plant response rating (0 to 100 scale) (pigweed [12]; 31 g ai/ha): 100
Plant response rating, Pigweed (pigweed [12]; 125 g ai/ha): 100
Plant response rating, Foxtail, Giant (giant foxtail [13]; [17]): 10
Plant response rating, Foxtail, Giant (giant foxtail [13]; [15]): 70
Plant response rating, Ducksalad (Heteranthera limosa): 80
Plant response rating, Wheat (wheat; [17]): 0

Fc1cnc(Oc2ccccc2-n2cc(OCC(F)(F)F)cn2)nc1 [Compound 241]
Plant response rating, Rice (rice): 0
Plant response rating, Ryegrass, Italian (Italian ryegrass [1]; [18]): 0
Ryegrass, Italian plant response rating (0 to 100 scale) (Italian ryegrass [1]; 125 g ai/ha): 0
Plant response rating, Ragweed (ragweed [2]; [17]): 10
Plant response rating, Ragweed (ragweed [2]; [19]): 30
Plant response rating, Barnyardgrass (barnyardgrass [3]; [17]): 0
Plant response rating, Barnyardgrass (barnyardgrass [3]; [19]): 10
Plant response rating, Blackgrass (blackgrass; [17]): 0
Plant response rating, Blackgrass (blackgrass; [19]): 20
Plant response rating, Foxtail, Giant (giant foxtail [4]; [18]): 50
Foxtail, Giant plant response rating (0 to 100 scale) (giant foxtail [4]; 125 g ai/ha): 100
Plant response rating, Ryegrass, Italian (Italian ryegrass [5]; [17]): 0
Plant response rating, Ryegrass, Italian (Italian ryegrass [5]; [19]): 0
Plant response rating, Galium (galium; [17]): 40
Plant response rating, Galium (galium; [19]): 60
Plant response rating, Kochia (kochia [6]; [17]): 50
Plant response rating, Kochia (kochia [6]; [19]): 90
Plant response rating, Ragweed (ragweed [7]; [18]): 0
Ragweed plant response rating (0 to 100 scale) (ragweed [7]; 125 g ai/ha): 40
Plant response rating, Corn (corn; [17]): 0
Plant response rating, Corn (corn; [19]): 10
Plant response rating, Barnyardgrass (barnyardgrass [8]; [18]): 10
Barnyardgrass plant response rating (0 to 100 scale, 0 is no effect, 100 is complete control) (barnyardgrass [8]; 125 g ai/ha): 60
Plant response rating, Pigweed (pigweed [9]; [17]): 40
Plant response rating, Pigweed (pigweed [9]; [19]): 80
Plant response rating, Barnyardgrass (barnyardgrass [10]): 0
Plant response rating, Sedge, Umbrella (sedge, umbrella): 0
Plant response rating, Kochia (kochia [11]; [18]): 50
Kochia plant response rating (0 to 100 scale) (kochia [11]; 125 g ai/ha): 100
Plant response rating, Pigweed (pigweed [12]; [18]): 80
Pigweed plant response rating (0 to 100 scale) (pigweed [12]; 125 g ai/ha): 100
Plant response rating, Foxtail, Giant (giant foxtail [13]; [17]): 0
Plant response rating, Foxtail, Giant (giant foxtail [13]; [19]): 20
Plant response rating, Ducksalad (Heteranthera limosa): 40
Plant response rating, Wheat (wheat; [17]): 0
Plant response rating, Wheat (wheat; [19]): 10
